These results are taken from patent US20210246439A1, “ENGINEERED BI-STABLE TOGGLE SWITCH AND USES THEREOF” (Massachusetts Institute of Technology, priority 2020, published 2021).

The test system of assay [1] is engineered bi-stable toggle switch (CasE-PEST, Csy4-PEST, DDd-CasE, DDe-DDe-Csy4) in HEK293 cells. Put plainly: Toggle switch with DDd-CasE and DDe-DDe-Csy4 in transfected HEK293 cells, small-molecule control, flow cytometry of mKO2/eYFP. Format: cell-based, human. As for the experimental part: Output fluorescent protein genes may also contain PERSIST activation domains to decrease expression in the OFF state. […] Further, HEK293 cells were transfected with CasE-PEST, Csy4-PEST, DDd-CasE and DDe-DDe-Csy4 transiently and cultured in the absence of small molecule for 24 hours.

Assay [2] has as its system CasE target hairpin containing a theophylline responsive aptamer. Put plainly: Proof of concept: CasE target hairpin with theophylline responsive aptamer 5' of eYFP, co-delivered with CasE. Particulars: HEK293 cells, versus absence of theophylline. The format is cell-based, human. From the text:
Alternatively, the engineered bi-stable toggle switch described in Example 1 can be designed to be able to respond to different small molecules to switch the system between different states. In this system, each of the endoRNAse target sites can include a small molecule-response aptamers. Binding of the small molecule to the aptamer stabilizes a secondary structure in the aptamer RNA that blocks the endoRNAse from cleaving its recognition hairpin. As illustrated by FIG. 4A, the CRISPR-endoRNAse recognition hairpin contains an aptamer sequence capable of binding to a small molecule. In the absence of the small molecule, the endoRNAse is able to cleave the recognition hairpin; however, the addition of the small molecule to the system induces a conformational change of the endoRNAse target hairpin, and such conformational change renders the endoRNAse incapable of binding and cleaving its target hairpin. […] In this experiment, a CasE target hairpin containing a theophylline responsive aptamer was placed 5′ of an eYFP coding sequence in an eYFP-expressing construct. This eYFP-expressing construct was co-delivered to HEK293 cells with another construct expressing CasE.

Assay [3] has as its system engineered bi-stable motif. Put plainly: Screening of DDd-CasE fusion proteins on the bi-stable motif (polytransfection, eYFP/TagBFP). Particulars: hEF1α promoter, among CasE-DDd fusions screened. Format: cell-based. As for the experimental part: Further, fusion proteins between CasE and one or more DDd domains were screened similarly as described above. In this experiment, only hEF1α promoter was tested. Each of the construct and the engineered bi-stable toggle switch described in Example 1 were delivered to the cells by polytransfection. The output molecules were eYFP and TagBFP. The system was designed such that Csy4 represses eYFP and CasE represses TagBFP. A cell in the CasE-high state expressed eYFP and a cell in the Csy4-high state expresses TagBFP. The ratio between CasE to Csy4 was set at 1.6 times as much Csy4 as CasE, biasing the system towards a Csy4-high state in the absence of additional proteins.

In assay [4] the test system is engineered bi-stable motif. Put plainly: Screening of promoter and degradation domain combinations with Csy4 on the bi-stable motif (polytransfection, eYFP/TagBFP). Format: cell-based. As for the experimental part:
Csy4 was first selected to be fused with either one copy or two copies of DDd domain or DDe domain respectively: DDe-Csy4, DDe-DDe-Csy4, DDd-Csy4, and DDd-DDd-Csy4. Various promoters (e.g., phEF1α, pUbc, and pPh1f) were used to drive the expression of the Csy4 or Csy4-degradation domain fusion proteins. pPh1f promoters were tested in the presence of Gal4-NLS-VP64. As a result, the following constructs were generated: phEF1α-Csy4, pUbc-DDd-Csy4, pUbc-DDd-DDd-Csy4, pPh1f-DDd-DDd-Csy4, pPh1f-DDd-Csy4-PEST, pPh1f-DDe-Csy4, pUbc-DDe-Csy4, pUbc-DDe-Csy4-PEST, pPh1f-DDe-DDe-Csy4, pUbc-DDe-DDe-Csy4, and pUbc-DDe-DDe-Csy4-PEST. Each of the constructs and the engineered bi-stable toggle switch described in Example 1 were delivered to the cells by polytransfection (Gam et al, A ‘poly-transfection’ method for rapid, one-pot characterization and optimization of genetic systems, Nucleic Acids Research, Volume 47, Issue 18, 10 Oct. 2019, Page e106). The output molecules were eYFP and TagBFP. The system was designed such that Csy4 represses eYFP and CasE represses TagBFP. A cell in the CasE-high state expressed eYFP and a cell in the Csy4-high state expresses TagBFP. The ratio between CasE to Csy4 was set at 6.7 times as much CasE as Csy4, biasing the system towards a CasE-high state in the absence of additional proteins. […]

In the case of `COc1cc(Cc2cnc(N)nc2N)cc(OC)c1OC` [TMP, trimethoprim], in assay [1] (10 μM added at 24 hrs and maintained for 48 hrs, roughly equal mKO2 and eYFP before addition), the “reporter expression after small molecule addition” value is “higher frequencies of eYFP expression than mKO2 expression”.

For the molecule `Cn1c(=O)c2[nH]cnc2n(C)c1=O` [theophylline], the “eYFP expression in the presence of theophylline (repression by CasE lifted)” value in assay [2] is listed as “two-folds increase”.

Take 4-hydroxytamoxifen [4-OHT]: the “state the bi-stable toggle switch stabilizes on” value in assay [1] (small molecule in the system for 24 hours) is “Csy4-high/CasE-low state (mKO2-high/eYFP-low)”.

B1: DDd-CasE: fusion protein of DDd domain and CasE, nucleotide sequence SEQ ID NO: 6 (protein)
chain: MYLSKIIIARAWSRDLYQLHQELWHLFPNRPDAARDFLFHVEKRNTPEGCHVLLQSAQMPVSTAVATVIKTKQVEFQLQVGVPLYFRLRANPIKTILDNQKRLDSKGNIKRCRVPLIKEAEQIAWLQRKLGNAARVEDVHPISERPQYFSGEGKNGKIQTVCFEGVLTINDAPALIDLLQQGIGPAKSMGCGLLSLAPLMISLIAALAVDYVIGMENAMPWNLPADLAWFKRNTLNKPVIMGRHTWESIGRPLPGRKNIILSSQPSTDDRVTWVKSVDEAIAACGDVPEIMVIGGGRVIEQFLPKAQKLYLTHIDAEVEGDTHFPDYEPDDWESVFSEFHDADAQNSHSYCFEILERR
As for B1, in assay [3], the “being degraded in the absence of TMP and cleaving RNA in the presence of TMP” value was “better at (i) being degraded in the absence of TMP; and (ii) cleaving RNA efficiently in the presence of TMP”.

B2: DDe-DDe-Csy4: fusion protein of two DDe domains and Csy4, nucleotide sequence SEQ ID NO: 5 (protein)
chain: MSLALSLTADQMVSALLDAEPPILYSEYDPTRPFSEASMMGLLTNLADRELVHMINWAKRVPGFVDLALHDQVHLLECAWMEILMIGLVWRSMEHPGKLLFAPNLLLDRNQGKCVEGGVEIFDMLLATSSRFRMMNLQGEEFVCLKSIILLNSGVYTFLSSTLKSLEEKDHIHRVLDKITDTLIHLMAKAGLTLQQQHQRLAQLLLILSHIRHMSSKRMEHLYSMKCKNVVPLSDLLLEMLDAHRLMSLALSLTADQMVSALLDAEPPILYSEYDPTRPFSEASMMGLLTNLADRELVHMINWAKRVPGFVDLALHDQVHLLECAWMEILMIGLVWRSMEHPGKLLFAPNLLLDRNQGKCVEGGVEIFDMLLATSSRFRMMNLQGEEFVCLKSIILLNSGVYTFLSSTLKSLEEKDHIHRVLDKITDTLIHLMAKAGLTLQQQHQRLAQLLLILSHIRHMSSKRMEHLYSMKCKNVVPLSDLLLEMLDAHRLMDHYLDIRLRPDPEFPPAQLMSVLFGKLHQALVAQGGDRIGVSFPDLDESRSRLGERLRIHASADDLRALLARPWLEGLRDHLQFGEPAVVPHPTPYRQVSRVQAKSNPERLRRRLMRRHDLSEEEARKRIPDTVARALDLPFVTLRSQSTGQHFRLFIRHGPLQVTAEEGGFTCYGLSKGGFVPWF
As for B2, the “capability of (i) being degraded in the absence of 4-OHT and (ii) cleaving RNA efficiently in the presence of 4-OHT” value in assay [4] (among Csy4 fusion constructs screened) is listed as “best capability”. In addition, the “fraction of cells in the TagBFP high state with versus without 4-OHT” value in assay [4] (regardless of promoter, especially in higher ratio bins) is “higher fraction of cells in the TagBFP high state when 4-OHT is present than without”.
